Test system: histamine release from immunologically stimulated human basophils
Assay: inhibition of mediator (histamine) release from immunologically stimulated human basophils
Type: cell-based
Conditions: Leukocyte, 1 h; human basophils (leukocytes) challenged with anti-IgE or antigen, 60 minutes at 37° C.; linear regression; read-out: ED50 (the concentration in μM which causes a 50% inhibition of histamine release)
From the text: The novel compounds of this invention as well as the prior art compound, 6-n-propyl-8-methylimidazo[1,5-d]-as-triazin-4(3H)-one, have been tested by the procedure of Lichtenstein, L. M. and Osler, A. G., J. Exp. Med., 120, 507-530, (1964), which evaluates the ability of compounds to inhibit mediator (histamine) release from immunologically stimluated human basophils.
Dissolve 140.3 g. of sodium chloride, 7.45 g. of potassium chloride and 74.5 g. of Trizma-Tris Pre-Set, Reagent Grade, pH 7.6, at 25° C. (Sigma Chemical Co.) in sufficient water to give a final volume of 2 liters.
(Sigma Chemical Co.) (30 mg./ml.)
Made to 0.075 M and 0.5 M. respectively, with calcium chloride dihydrate and magnesium chloride hexahydrate.
A 10 ml. portion of 10X Tris Buffer and 1.0 ml. of human albumin are diluted to 100 ml. with water.
A 10 ml. portion of 10X Tris Buffer, 1.0 ml. of human albumin. 0.8 ml. of calcium stock and 0.2 ml. of magnesium stock are diluted to 100 ml. with water.
Behring Diagnostics (Generally used at 10 μg. protein/ml. final concentration.)
Strength 1:100 (w:v) allergenic extract, Hollister-Stier Labs. Generally this is diluted 1:1000 to 1:10,000 (considering the vial as stock).
Intradermal solutions or intramuscular preparations for hyposensitization, Hollister-Stier Labs. The final concentration used is on the order of 1 PNU/ml.
Eighty milliliters of blood is withdrawn from subjects with known histamine release to anti-IgE, ragweed antigen or other specific allergen, using four 20 ml. heparinized tubes. This 80 ml. of blood is mixed with 20 ml. of saline containing 0.6 g. of dextrose and 1.2 g. of dextran. The blood is allowed to sediment at room temperature in two 50 ml. polycarbonate centrifuge tubes until a sharp interface develops between the red cells and plasma (60-90 minutes). The plasma (top) layer from each tube is withdrawn by pipet and transferred to respective 50 ml. polycarbonate tubes. The plasma is centrifuged for 8 minutes at 110X g at […] The supernatant is carefully poured off as completely as possible and the cell button is resuspended in 2-3 ml. of Tris-A buffer using a siliconized Pasteur pipet. The resuspension is accomplished by drawing the liquid gently in and out of the pipet, with the tip below the liquid, until an even suspension of cells is obtained. Sufficient Tris-A buffer is then added to bring the volume in the tube to about 45 ml. and the tube is centrifuged at 110X g for 8 minutes at 4° C. The supernatant is poured off and the cell button is resuspended and centrifuged as described above. […]

CCCc1nc(C)c2cn[nH]c(=O)n12 [6-n-propyl-8-methylimidazo[1,5-d]-as-triazin-4(3H)-one, reference compound]
IC50: 87 µM

CCCc1n[nH]c(=O)n2c(CCC)nc(C)c12 [1,6-Di-n-propyl-8-methylimidazo[1,5-d]-as-triazin-4(3H)-one]
IC50: 16.1 µM

CCCc1nc(C)c2c(CC)n[nH]c(=O)n12 [1-Ethyl-6-n-propyl-8-methylimidazo[1,5-d]-as-triazin-4(3H)-one]
IC50: 12.3 µM

CCCc1nc(C)c2c(C)n[nH]c(=O)n12 [1,8-Dimethyl-6-n-propylimidazo[1,5-d]-as-triazin-4(3H)-one]
IC50: 13.1 µM
